The values that follow come from EP4678638A1, “NEW E3 UBIQUITIN LIGASE LIGAND, PROTEIN DEGRADATION AGENT AND USE THEREOF” (priority 2023, dated 2024).

One assay has as its system MV-4-11. The assay is described as follows: CCK-8 proliferation, MV-4-11. The settings on record: Homo sapiens, MV4-11; CCK-8; 72 or 96 hours; read-out: Inhibitory activity (IC50) on tumor cell proliferation, MV-4-11. In kind it is cell-based, Human. The method, then:
(§1) The tumor cells used herein were cultured in a cell culture medium listed in table A1 at 37°C in an incubator with 5% CO2. Prior to experimentation, all cell lines used were correctly identified by STR profiling, and tested negative for mycoplasma contamination using a mycoplasma detection kit through routine screenings. Table A1. Tumor cells and cell culture medium used in the present disclosure
(§2) IC50 values of the compounds of the present disclosure (including the compounds in Table 1, and compounds of examples) were measured using the Meilun Cell Counting Kit-8 kit from Dalian Meilun Biotech Co., Ltd. Assay details are as follows: tumor cells were seeded in a 96-well plate at a density listed in Table A2. After 24h, 100 µL of the inoculated cells were treated with 0.5µL of the compounds of the present disclosure (including the compounds in Tables 1 and 2, and compounds of examples) at 10 different successively decreasing concentrations (starting at the highest concentration of 10µM; 5-fold serial dilutions). After the cells were treated with the compounds of the present disclosure for a period of time, the cell viability detection reagent was added to the culture medium for cell viability assessment according to the instructions provided with the CCK-8 kit. […] The growth inhibition of the compounds of the present disclosure on cells was plotted by Prism Graphpad software, and the IC50 values of the compounds of the present disclosure were calculated therefrom. […] Seeding protocol and treatment time for tumor cells

The next assay relates to SW620. The experiment in a line: CCK-8 proliferation, SW620. The assay is classed as cell-based. Conditions: Homo sapiens, SW-620; CCK-8; 96 hours; read-out: Inhibitory activity (IC50) on tumor cell proliferation, SW620. The method, then:
as §1, §2

A further assay deals with T1, FAK (Homo sapiens, UniProt Q05397).
T1 construct: evaluate the effects of the compounds of the present disclosure on the expression of target proteins in cells; endogenous in cells
T1 sequence (Q05397 whole entry, species assumed): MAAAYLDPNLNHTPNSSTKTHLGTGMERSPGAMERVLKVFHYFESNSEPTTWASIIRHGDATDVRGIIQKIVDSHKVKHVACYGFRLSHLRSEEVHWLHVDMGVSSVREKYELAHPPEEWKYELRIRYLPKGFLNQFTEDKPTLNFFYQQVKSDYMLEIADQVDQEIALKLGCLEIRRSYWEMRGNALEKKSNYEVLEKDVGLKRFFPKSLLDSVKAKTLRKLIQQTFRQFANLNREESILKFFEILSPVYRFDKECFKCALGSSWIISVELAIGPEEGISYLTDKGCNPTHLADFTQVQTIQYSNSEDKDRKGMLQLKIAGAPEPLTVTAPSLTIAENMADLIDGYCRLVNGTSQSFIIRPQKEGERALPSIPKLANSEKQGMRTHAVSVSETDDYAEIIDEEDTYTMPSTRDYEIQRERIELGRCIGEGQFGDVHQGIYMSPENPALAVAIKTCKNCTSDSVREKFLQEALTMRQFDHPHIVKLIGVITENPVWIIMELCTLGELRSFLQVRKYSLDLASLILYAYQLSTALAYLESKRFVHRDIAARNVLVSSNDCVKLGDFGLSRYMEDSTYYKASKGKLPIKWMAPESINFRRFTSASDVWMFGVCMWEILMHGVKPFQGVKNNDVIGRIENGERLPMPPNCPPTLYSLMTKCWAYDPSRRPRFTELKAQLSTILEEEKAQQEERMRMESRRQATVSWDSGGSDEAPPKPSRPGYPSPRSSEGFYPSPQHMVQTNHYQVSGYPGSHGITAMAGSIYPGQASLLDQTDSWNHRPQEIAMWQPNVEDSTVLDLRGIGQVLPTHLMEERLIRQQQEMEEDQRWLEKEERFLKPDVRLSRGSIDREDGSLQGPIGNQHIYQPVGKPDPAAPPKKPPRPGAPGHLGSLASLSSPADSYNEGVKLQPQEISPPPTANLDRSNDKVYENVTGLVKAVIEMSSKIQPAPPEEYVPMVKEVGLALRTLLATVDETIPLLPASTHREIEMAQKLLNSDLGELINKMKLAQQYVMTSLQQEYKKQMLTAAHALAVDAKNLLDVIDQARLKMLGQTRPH
The assay is described as follows: Western blot degradation of FAK. The assay is classed as cell-based. Conditions: Table D7. Here is the method:
Conventional Western blot assay was performed to evaluate the effects of the compounds of the present disclosure on the expression of target proteins in cells.
(1) Cell Seeding and Protein Harvesting: The selected cells were processed according to the cell seeding procedure and protein harvesting procedure in Table III-2. Table III-2 Cell Seeding and Protein Harvesting Procedures
(2) To the collected supernatant, 5X SDS sample loading buffer was added, followed by denaturation at 95°C for 5 minutes. The denatured samples were then separated by SDS-PAGE electrophoresis on a polyacrylamide gel. Proteins were transferred to a nitrocellulose membrane (0.45 µm NC membrane), blocked with blocking buffer at room temperature for 1 hour, and subjected to antibody incubation and development procedures according to the antibody manufacturer's instructions (Cell Signaling Technology).
Half-Maximal Degradation Concentration value (the drug concentration required for degrading proteins by 50%, abbreviated as DC50) reads method: comparing the grayscale values of Western blot bands from drug-treated samples with those from blank DMSO-treated controls, and identifying the drug concentration range at which the grayscale value is half that of the DMSO-treated control bands.
DC50 values can be calculated using ImageJ software to measure grayscale values of Western blot bands from drug-treated samples. The concentration-response curve is fitted to estimate the drug concentration corresponding to half the grayscale value.
Target protein remaining (%) refers to the percentage of target protein remaining in hPBMC cells after treatment with protein degrader compounds.
Calculation method for target protein remaining (%): Use ImageJ software to measure grayscale values of Western blot bands from drug (protein degrader)-treated samples. The grayscale value of drug-treated bands is divided by that of internal control protein bands, and the resulting quotient is normalized to obtain the relative percentage of remaining target protein after protein degrader treatment.
Target protein degradation rate (%) = 100% - target protein remaining (%).
(In general: A western blot detects proteins with antibodies after separation by electrophoresis.)

The next assay relates to SR. The assay is described as follows: CCK-8 proliferation, SR. The assay is classed as cell-based, Human. The settings on record: Homo sapiens. The method, boiled down:
(§3)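 Tumor cells were cultured at 37°C with 5% CO2, seeded, and after 24h treated with compounds at 10 concentrations starting at 10µM (5-fold serial dilutions).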

Assay [1] addresses T2, human Cereblon WT GST-tagged protein (Homo sapiens, UniProt Q96SW2).
T2 construct: purchased CISBIO 64BDCRBNPEH
The experiment in a line: CRBN binding, HTRF (CEREBLON BINDING kit). Conditions: Table II-2, CRBN binding screening, HTRF; for inhibition at 0.5 µM: read-out: Inhibition rate (%) at 0.5µM; for inhibition at 2 µM: read-out: Inhibition rate (%) at 2 µM. The method, boiled down: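 Competitive HTRF: GST-tagged human WT Cereblon mixed with compound, Thalidomide-Re tracer and GST Eu antibody, incubated 3 h at room temperature. Signals read at 620 and 665 nm.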
For orientation: In TR-FRET formats the signal depends on donor and acceptor labels being close together.

The subject of another assay is CCRF-CEM. The assay is described as follows: CCK-8 proliferation, CCRF-CEM. The settings on record: Homo sapiens, CCRF-CEM; CCK-8; 96 hours; read-out: Inhibitory activity (IC50) on tumor cell proliferation, CCRF-CEM. The assay is classed as cell-based, Human. The method, boiled down:
as §3

The test system of another assay is H1975. The assay is described as follows: CCK-8 proliferation, NCI-H1975 (H1975). In kind it is cell-based, Human. The settings on record: Homo sapiens, NCI-H1975. The method, boiled down: as §3
For another assay, the system named is Jurkat. The experiment in a line: CCK-8 proliferation, Jurkat. The settings on record: Homo sapiens, Jurkat; CCK-8; 96 hours; read-out: Inhibitory activity (IC50) on tumor cell proliferation, Jurkat. In kind it is cell-based, Human. The method, then:
as §1, §2

For a further assay, the system named is H2228. The experiment in a line: CCK-8 proliferation, NCI-H2228 (H2228). The settings on record: Homo sapiens, NCI-H2228. In kind it is cell-based. An outline of the steps: as §3
The test system of another assay is PC-9. The assay is described as follows: CCK-8 proliferation, PC-9. The assay is classed as cell-based, Human. The settings on record: Homo sapiens, PC-9; CCK-8; 96 hours; read-out: Inhibitory activity (IC50) on tumor cell proliferation, PC-9. Here is the method:
as §1, §2

A further assay deals with MCF7. The experiment in a line: CCK-8 proliferation, MCF7 (MCF-7). In kind it is cell-based. The settings on record: Homo sapiens, MCF7; Table B6, compounds designed based on the ALK inhibitors; MCF-7 cells; read-out: Inhibitory activity (IC50, nM) on tumor cell proliferation, MCF-7. An outline of the steps:
as §3

In another assay the test system is MDA-MB-231. The experiment in a line: CCK-8 proliferation, MDA-MB-231. The settings on record: Homo sapiens; Table B6, compounds designed based on the ALK inhibitors; MDA-MB-231 cells; read-out: Inhibitory activity (IC50, nM) on tumor cell proliferation, MDA-MB-231. The assay is classed as cell-based. Here is the method: as §1, §2
The mark [2] stands for this setting: SR, CCK-8, 72 hours, read-out: Inhibitory activity (IC50) on tumor cell proliferation, SR.
[3] abbreviates: CCK-8, 96 hours, read-out: Inhibitory activity (IC50) on tumor cell proliferation, H1975.
[4] abbreviates: Table B6, compounds designed based on the ALK inhibitors, SR cells, read-out: Inhibitory activity (IC50, nM) on tumor cell proliferation, SR.
The mark [5] stands for this setting: Table B6, compounds designed based on the ALK inhibitors, H2228 cells, read-out: Inhibitory activity (IC50, nM) on tumor cell proliferation, H2228.

Read-outs that look alike come from different tables or passages of the source.

T2 sequence (Q96SW2 whole entry): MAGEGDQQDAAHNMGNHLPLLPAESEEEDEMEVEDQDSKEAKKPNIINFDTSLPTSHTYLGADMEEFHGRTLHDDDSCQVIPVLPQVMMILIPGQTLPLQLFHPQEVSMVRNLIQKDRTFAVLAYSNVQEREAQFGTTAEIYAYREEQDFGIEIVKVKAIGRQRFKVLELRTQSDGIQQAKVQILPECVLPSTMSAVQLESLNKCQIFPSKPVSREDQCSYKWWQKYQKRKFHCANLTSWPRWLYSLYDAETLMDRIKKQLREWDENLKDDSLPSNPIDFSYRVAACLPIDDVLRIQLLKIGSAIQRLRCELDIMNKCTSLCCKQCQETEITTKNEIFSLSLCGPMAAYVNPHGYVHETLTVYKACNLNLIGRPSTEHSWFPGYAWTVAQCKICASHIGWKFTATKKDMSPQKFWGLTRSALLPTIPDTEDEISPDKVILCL

One may read the inhibition as the change of the read-out against control, counted positive when it falls. As to `CNC(=O)c1ccccc1Nc1cc(Nc2ccc(N3CCN(Cc4ccc(C5CCC(=O)NC5=O)cc4)CC3)cc2OC)ncc1C(F)(F)F` (centres unmarked) [GT-03715, 2-((2-((4-(4-(4-(2,6-dioxopiperidin-3-yl)benzyl)piperazin-1-yl)-2-methoxyphenyl)amino)-5-(trifluoromethyl)pyridin-4-yl)amino)-N-methylbenzamide], the IC50 in the assay with MV-4-11 was in the range of 100 to 500 nM; with SW620 it was 500 to 1000 nM; in the assay on SR (setting [2]) it was 100 to 500 nM; in the assay on CCRF-CEM, 500 to 1000 nM. Besides, the “Degradation of substrate protein FAK (substrate protein remaining %)” value (from here on “Degradation … (substrate protein remaining %)”) at FAK is listed as “A (A is defined as 0% ≤ substrate protein remaining % ≤ 80%)”. Moreover, in assay [1], the inhibition at 0.5 µM was 10 to 20%. Also, in [1], the inhibition at 2 µM fell in the range of 60 to 80%.
As for `CNC(=O)c1ccccc1Nc1cc(Nc2ccc(N3CCN(Cc4ccc(C5CCC(=O)NC5=O)c(F)c4)CC3)cc2OC)ncc1C(F)(F)F` (centres unmarked) [GT-03717, 2-((2-((4-(4-(4-(2,6-dioxopiperidin-3-yl)-3-fluorobenzyl)piperazin-1-yl)-2-methoxyphenyl)amino)-5-(trifluoromethyl)pyridin-4-yl)amino)-N-methylbenzamide], the IC50 with MV-4-11 lay within 100 to 500 nM; with H1975 (setting [3]), 500 to 1000 nM; with SW620, 500 to 1000 nM; in the assay on SR (setting [2]), 100 to 500 nM. The “Degradation … (substrate protein remaining %)” value at FAK is “A (A is defined as 0% ≤ substrate protein remaining % ≤ 80%)”. For the same compound, the inhibition at 0.5 µM in assay [1] was in the range of 30 to 40%. In assay [1], the inhibition at 2 µM fell in the range of 40 to 53%.
With `COc1cc(C(=O)NC2CCN(Cc3ccc(C4CCC(=O)NC4=O)c(F)c3)CC2)c(F)cc1Nc1ncc(C(F)(F)F)c(Oc2cccc3c2C(=O)N(C)C3)n1` (centres unmarked) [GT-04035, N-(1-(4-(2,6-dioxopiperidin-3-yl)-3-fluorobenzyl)piperidin-4-yl)-2-fluoro-5-methoxy-4-((4-((2-methyl-3-oxoisoindolin-4-yl)oxy)-5-(trifluoromethyl)pyrimidin-2-yl)amino)benzamide], the “Degradation … (substrate protein remaining %)” value on FAK is recorded as “A (A is defined as 0% ≤ substrate protein remaining % ≤ 80%)”. Besides, the IC50 with Jurkat was in the range of 50 to 100 nM. In addition, in [1], the inhibition at 0.5 µM lay in the range of 40 to 53% and the inhibition at 2 µM lay within 80 to 100%.
As to `NC(=O)c1ncc(N2CCCCC2)nc1Nc1ccc(C2CCN(Cc3ccc(N4CCC(=O)NC4=O)cc3F)CC2)cc1` [GT-04790, 3-((4-(1-(4-(2,4-dioxotetrahydropyrimidin-1(2H)-yl)-2-fluorobenzyl)piperidin-4-yl)phenyl)amino)-5-(piperidin-1-yl)pyrazine-2-carboxamide], the IC50 was in the range of 500 to 1000 nM in the assay on H1975 (setting [3]); 500 to 1000 nM with SW620; 100 to 500 nM in the assay with H2228 (CCK-8, 96 hours, read-out: Inhibitory activity (IC50) on tumor cell proliferation, H2228); 100 to 500 nM with PC-9.
For `CCc1cc2c(cc1N1CCC(N3CCN(Cc4ccc(N5CCC(=O)NC5=O)c(F)c4)CC3)CC1)C(C)(C)c1[nH]c3cc(C#N)ccc3c1C2=O` [GT-07308, 8-(4-(4-(4-(2,4-dioxotetrahydropyrimidin-1(2H)-yl)-3-fluorobenzyl)piperazin-1-yl)piperidin-1-yl)-9-ethyl-6,6-dimethyl-11-oxo-6,11-dihydro-5H-benzo[b]carbazole-3-carbonitrile], the IC50 in the assay on MCF7 lay within 500 to 1000 nM; with SR (setting [4]) it was 10 to 50 nM; in the assay with MDA-MB-231, 500 to 1000 nM; in the assay with H2228 (setting [5]) it was 10 to 50 nM.
For `COc1cc(N2CCC(N3CCN(Cc4ccc(N5CCC(=O)NC5=O)nc4)CC3)CC2)ccc1Nc1ncc(Cl)c(Nc2ccccc2P(C)(C)=O)n1` [GT-07607, 1-(5-((4-(1-(4-((5-chloro-4-((2-(dimethylphosphoryl)phenyl)amino)pyrimidin-2-yl)amino)-3-methoxyphenyl)piperidin-4-yl)piperazin-1-yl)methyl)pyridin-2-yl)dihydropyrimidine-2,4(1H,3H)-dione], the IC50 fell in the range of 100 to 500 nM in the assay on H1975 (Table B6, compounds designed based on the ALK inhibitors, H1975 cells, read-out: Inhibitory activity (IC50, nM) on tumor cell proliferation, H1975); 100 to 500 nM with MCF7; 1 to 10 nM with SR (setting [4]); 100 to 500 nM with MDA-MB-231; 10 to 50 nM with H2228 (setting [5]).
For the compound `CCc1cc2c(cc1N1CCC(N3CCN(Cc4cc(C5CCC(=O)NC5=O)cnc4F)CC3)CC1)C(C)(C)c1[nH]c3cc(C#N)ccc3c1C2=O` (centres unmarked) [GT-07703, 8-(4-(4-((5-(2,6-dioxopiperidin-3-yl)-2-fluoropyridin-3-yl)methyl)piperazin-1-yl)piperidin-1-yl)-9-ethyl-6,6-dimethyl-11-oxo-6,11-dihydro-5H-benzo[b]carbazole-3-carbonitrile], the IC50 in the assay with MCF7 was in the range of 500 to 1000 nM; in the assay on SR (setting [4]) it was 1 to 10 nM; in the assay with MDA-MB-231, 500 to 1000 nM; with H2228 (setting [5]), 50 to 100 nM.
For the compound `COc1cc(N2CCN(Cc3ccc(C4CCC(=O)NC4=O)cn3)CC2)ccc1Nc1ncc(Cl)c(Nc2ccccc2P(C)(C)=O)n1` (centres unmarked) [GT-07713, 3-(6-((4-(4-((5-chloro-4-((2-(dimethylphosphoryl)phenyl)amino)pyrimidin-2-yl)amino)-3-methoxyphenyl)piperazin-1-yl)methyl)pyridin-3-yl)piperidine-2,6-dione], the IC50 in the assay with SR (setting [4]) lay in the range of 10 to 50 nM; in the assay with MDA-MB-231 it was 500 to 1000 nM; in the assay with H2228 (setting [5]) it was 100 to 500 nM.
